Assay results taken from patent US9211310B2, “Use of a Chinese medicine composition in preparing medicaments for treating secondary prevention of myocardial infarction” (TASLY PHARMACEUTICAL GROUP CO., LTD, priority 2010, dated 2015).

System: patients after acute myocardial infarction
Assay: TCM symptom score, total and single (chest pain, chest tightness, short breath, fatigue, palpitation, spontaneous perspiration, pale complexion), same clinical trial
Format: in vivo, human
Settings: for chest pain score 0, number of patients / chest pain score 0, percent of patients / chest pain score 3, number of patients / chest pain score 3, percent of patients / chest pain score 6, number of patients / chest pain score 6, percent of patients / chest pain score 9, number of patients / chest pain score 9, percent of patients / chest tightness score 0, number of patients / chest tightness score 0, percent of patients / chest tightness score 3, number of patients / chest tightness score 3, percent of patients / chest tightness score 6, number of patients / chest tightness score 6, percent of patients / chest tightness score 9, number of patients / chest tightness score 9, percent of patients: 1 month after treatment
Excerpt: 3508 patients who were in accordance with the diagnostic standards of AMI for 28 days to 2 years and differentiated as Qi deficiency and blood stagnation syndrome by TCM were studied. 0.5 g Chinese medicine composition prepared by the method of EXAMPLE 1 (Coded as QSYQ) was administrated half an hour after meal, 3 times per day.
They included the overall survival time, angina pectoris score, TCM symptom score and life quality score, where angina pectoris score, TCM symptom score and life quality score were evaluated at randomization, in 1st, 3rd, 6th, 9th, 12th month after treatment and 18th month after follow-up.
The analysis method referred to the angina pectoris score.

[1] = 1 month after treatment-baseline, FAS
[2] = 1 month after treatment-baseline, PP
[3] = 3 months after treatment-baseline, FAS
[4] = 3 months after treatment-baseline, PP

## CC(=O)Oc1ccccc1C(=O)O [Control group, aspirine]
[1]
  change of chest pain score 0, number of patients: 1344
  change of chest pain score 0, percent of patients: (78.64%)
  change of chest pain score 3, number of patients: 226
  change of chest pain score 3, percent of patients: (13.22%)
  change of chest pain score 6, number of patients: 60
  change of chest pain score 6, percent of patients: (3.51%)
  change of chest pain score 9, number of patients: 4
  change of chest pain score 9, percent of patients: (0.23%)
  change of chest pain score −3, number of patients: 59
  change of chest pain score −3, percent of patients: (3.45%)
  change of chest pain score −6, number of patients: 16
  change of chest pain score −6, percent of patients: (0.94%)
  change of chest pain score −9, number of patients: 0
  change of chest pain score −9, percent of patients: (0.00%)
  change of chest tightness score 0, number of patients: 1302
  change of chest tightness score 0, percent of patients: (76.18%)
  change of chest tightness score 3, number of patients: 298
  change of chest tightness score 3, percent of patients: (17.44%)
  change of chest tightness score 6, number of patients: 21
  change of chest tightness score 6, percent of patients: (1.23%)
  change of chest tightness score 9, number of patients: 5
  change of chest tightness score 9, percent of patients: (0.29%)
  change of chest tightness score −3, number of patients: 76
  change of chest tightness score −3, percent of patients: (4.45%)
  change of chest tightness score −6, number of patients: 7
  change of chest tightness score −6, percent of patients: (0.41%)
[2]
  change of chest pain score 0, number of patients: 1146
  change of chest pain score 0, percent of patients: (78.49%)
  change of chest pain score 3, number of patients: 197
  change of chest pain score 3, percent of patients: (13.49%)
  change of chest pain score 6, number of patients: 52
  change of chest pain score 6, percent of patients: (3.56%)
  change of chest pain score 9, number of patients: 3
  change of chest pain score 9, percent of patients: (0.21%)
  change of chest pain score −3, number of patients: 50
  change of chest pain score −3, percent of patients: (3.42%)
  change of chest pain score −6, number of patients: 12
  change of chest pain score −6, percent of patients: (0.82%)
  change of chest pain score −9, number of patients: 0
  change of chest pain score −9, percent of patients: (0.00%)
  change of chest tightness score 0, number of patients: 1110
  change of chest tightness score 0, percent of patients: (76.03%)
  change of chest tightness score 3, number of patients: 259
  change of chest tightness score 3, percent of patients: (17.74%)
  change of chest tightness score 6, number of patients: 19
  change of chest tightness score 6, percent of patients: (1.30%)
  change of chest tightness score 9, number of patients: 4
  change of chest tightness score 9, percent of patients: (0.27%)
  change of chest tightness score −3, number of patients: 62
  change of chest tightness score −3, percent of patients: (4.25%)
  change of chest tightness score −6, number of patients: 6
  change of chest tightness score −6, percent of patients: (0.41%)
FAS
  chest pain score 0, number of patients: 608
  chest pain score 0, percent of patients: (35.41%)
  chest pain score 3, number of patients: 635
  chest pain score 3, percent of patients: (36.98%)
  chest pain score 6, number of patients: 461
  chest pain score 6, percent of patients: (26.85%)
  chest pain score 9, number of patients: 13
  chest pain score 9, percent of patients: (0.76%)
  chest tightness score 0, number of patients: 608
  chest tightness score 0, percent of patients: (35.41%)
  chest tightness score 3, number of patients: 635
  chest tightness score 3, percent of patients: (36.98%)
  chest tightness score 6, number of patients: 461
  chest tightness score 6, percent of patients: (26.85%)
  chest tightness score 9, number of patients: 13
  chest tightness score 9, percent of patients: (0.76%)
PP
  chest pain score 0, number of patients: 515
  chest pain score 0, percent of patients: (35.13%)
  chest pain score 3, number of patients: 537
  chest pain score 3, percent of patients: (36.63%)
  chest pain score 6, number of patients: 406
  chest pain score 6, percent of patients: (27.69%)
  chest pain score 9, number of patients: 8
  chest pain score 9, percent of patients: (0.55%)
  chest tightness score 0, number of patients: 515
  chest tightness score 0, percent of patients: (35.13%)
  chest tightness score 3, number of patients: 537
  chest tightness score 3, percent of patients: (36.63%)
  chest tightness score 6, number of patients: 406
  chest tightness score 6, percent of patients: (27.69%)
  chest tightness score 9, number of patients: 8
  chest tightness score 9, percent of patients: (0.55%)
[3]
  change of chest pain score 0, number of patients: 1203
  change of chest pain score 0, percent of patients: (70.39%)
  change of chest pain score 3, number of patients: 325
  change of chest pain score 3, percent of patients: (19.02%)
  change of chest pain score 6, number of patients: 76
  change of chest pain score 6, percent of patients: (4.45%)
  change of chest pain score 9, number of patients: 6
  change of chest pain score 9, percent of patients: (0.35%)
  change of chest pain score −3, number of patients: 79
  change of chest pain score −3, percent of patients: (4.62%)
  change of chest pain score −6, number of patients: 20
  change of chest pain score −6, percent of patients: (1.17%)
  change of chest pain score −9, number of patients: 0
  change of chest pain score −9, percent of patients: (0.00%)
  change of chest tightness score 0, number of patients: 1190
  change of chest tightness score 0, percent of patients: (69.63%)
  change of chest tightness score 3, number of patients: 383
  change of chest tightness score 3, percent of patients: (22.41%)
  change of chest tightness score 6, number of patients: 37
  change of chest tightness score 6, percent of patients: (2.17%)
  change of chest tightness score 9, number of patients: 5
  change of chest tightness score 9, percent of patients: (0.29%)
  change of chest tightness score −3, number of patients: 85
  change of chest tightness score −3, percent of patients: (4.97%)
  change of chest tightness score −6, number of patients: 8
  change of chest tightness score −6, percent of patients: (0.47%)
  change of chest tightness score −9, number of patients: 1
  change of chest tightness score −9, percent of patients: (0.06%)
[4]
  change of chest pain score 0, number of patients: 1019
  change of chest pain score 0, percent of patients: (70.62%)
  change of chest pain score 3, number of patients: 279
  change of chest pain score 3, percent of patients: (19.33%)
  change of chest pain score 6, number of patients: 63
  change of chest pain score 6, percent of patients: (4.37%)
  change of chest pain score 9, number of patients: 4
  change of chest pain score 9, percent of patients: (0.28%)
  change of chest pain score −3, number of patients: 64
  change of chest pain score −3, percent of patients: (4.44%)
  change of chest pain score −6, number of patients: 14
